The subject of this assay is human mixed lymphocyte reaction (MLR). The assay is described as follows: human mixed lymphocyte reaction (MLR) assay. Conditions: immunosuppressant activity, read-out: Human MLR IC50 ± S.E.M. Format: cell-based. The method, then: The immunosuppressant activity of the compounds of the present invention was determined using the human mixed lymphocyte reaction (MLR) assay described by Kino, T. et al. in Transplantation Proceedings, XIX(5):36-39. Suppl. 6 (1987). […]

Turning to `CO[C@H]1C[C@@H]2CC[C@@H](C)[C@@](O)(O2)C(=O)C(=O)N2CCCC[C@H]2C(=O)O[C@H]([C@H](C)C[C@@H]2CC[C@@H](O)[C@H](OC)C2)CC(=O)[C@H](C)/C=C(\C)[C@@H](O)[C@@H](OC)C(=O)[C@H](C)C[C@H](C)/C=C/C=C/C=C/1C` [Rapamycin, reference compound], the IC50 was 0.91 ± 0.36 nM.

In general, IC50 refers to the concentration that gives 50% inhibition.

Values taken from patent EP1015459B9 (ABBOTT LABORATORIES, priority 1997, dated 1999).
